Counter-ions that a name gives are not always drawn.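 Exposure lasted 48 hours, with cells grown in 96-well plates and compounds tested at five concentrations. At the GI50, growth is halved.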 The source made the active and inactive calls. Cut-off read from the data, not from the text of the source: active = GI50 up to about 1.1 µM and inactive = higher.
How the values were obtained:
Experiment in all cases: growth of human tumour cells (NCI), 48 h
[1] = tested on: SF-268
[2] = tested on: A498
[3] = tested on: HOP-62
[4] = tested on: CAKI-1
[5] = tested on: HOP-92
[6] = tested on: SW-620
[7] = tested on: SK-OV-3
[8] = tested on: SR
[9] = tested on: HL-60
[10] = tested on: OVCAR-8
[11] = tested on: MOLT-4
[12] = tested on: CCRF-CEM
[13] = tested on: OVCAR-3
[14] = tested on: UACC-257
[15] = tested on: NCI-H226
[16] = tested on: MDA-MB-435
[17] = tested on: T47D
[18] = tested on: DU-145
[19] = tested on: MDA-N

For `COc1cc2c3c(c1OC)C1(C=CC(=O)C=C1)CC3N(C(=O)OC(C)(C)C(Cl)(Cl)Cl)CC2` (centres undefined), the GI50 [1] was 13.1 µM (inactive), the GI50 [2] was 16.7 µM (inactive) and the GI50 [3] was 17.6 µM (inactive). For the same compound, the GI50 [4] was 14.9 µM (inactive), the GI50 [5] was 14.4 µM (inactive) and the GI50 [6] was 18.3 µM (inactive). The GI50 [7] was 26.2 µM (inactive), the GI50 [8] was 3.5 µM (inactive) and the GI50 [9] was 1.95 µM (inactive). The GI50 [10] was 8.85 µM (inactive), the GI50 [11] was 2.97 µM (inactive) and the GI50 [12] was 7.73 µM (inactive). For the same compound, the GI50 [13] was 7.66 µM (inactive), the GI50 [14] was 10.4 µM (inactive) and the GI50 [15] was 15.9 µM (inactive).
For `Cc1cc(C)[n+](CCOc2ccc(/C(=C(/Cl)c3ccccc3)c3ccccc3)cc2)c(C)c1.[O-][Cl+3]([O-])([O-])[O-]`, the GI50 [1] was 0.933 µM (active), the GI50 [2] was 3.87 µM (inactive) and the GI50 [3] was 2.37 µM (inactive). The GI50 [4] was 4.49 µM (inactive), the GI50 [5] was 0.989 µM (active) and the GI50 [6] was 0.891 µM (active). For the same compound, the GI50 [7] was 1.25 µM (inactive), the GI50 [8] was 0.804 µM (active) and the GI50 [9] was 0.215 µM (active). For the same compound, the GI50 [10] was 1.33 µM (inactive), the GI50 [11] was 1.28 µM (inactive) and the GI50 [12] was 0.521 µM (active). For the same compound, the GI50 [13] was 0.659 µM (active), the GI50 [14] was 0.692 µM (active) and the GI50 [15] was 1.32 µM (inactive).
In the case of `CN1C=C(C(N)=O)C2CC(O)[C@@](NC(=O)CS(N)(=O)=O)(C(=O)O)C2C1` (some centres undefined), the GI50 [1] was 3.02 µM (inactive), the GI50 [2] was 2.03 µM (inactive) and the GI50 [3] was 1.82 µM (inactive). For the same compound, the GI50 [4] was 5.46 µM (inactive), the GI50 [5] was 1.49 µM (inactive) and the GI50 [6] was 3.87 µM (inactive). The GI50 [7] was 2.47 µM (inactive), the GI50 [8] was 2.02 µM (inactive) and the GI50 [9] was < 0.01 µM (active). The GI50 [10] was 5.9 µM (inactive), the GI50 [11] was 1.7 µM (inactive) and the GI50 [12] was 9.33 µM (inactive). For the same compound, the GI50 [13] was 17.5 µM (inactive), the GI50 [14] was 5.24 µM (inactive) and the GI50 [15] was 2.68 µM (inactive).
In the case of `O=C(Nc1ccn(CCO)c(=O)n1)c1ccccc1`, the GI50 [1] was > 100 µM (inactive), the GI50 [2] was > 100 µM (inactive) and the GI50 [3] was > 100 µM (inactive). The GI50 [4] was > 100 µM (inactive), the GI50 [5] was > 100 µM (inactive) and the GI50 [6] was > 100 µM (inactive). For the same compound, the GI50 [7] was > 100 µM (inactive), the GI50 [8] was > 100 µM (inactive) and the GI50 [9] was > 100 µM (inactive). For the same compound, the GI50 [10] was > 100 µM (inactive), the GI50 [12] was > 100 µM (inactive) and the GI50 [13] was > 100 µM (inactive). For the same compound, the GI50 [14] was > 100 µM (inactive) and the GI50 [15] was > 100 µM (inactive).
`CCOC(=O)c1cn(C)c(=S)n2c1nc1ccccc12` was tested, and the GI50 [2] was 22.3 µM (inactive), the GI50 [3] was > 100 µM (inactive) and the GI50 [4] was 91.4 µM (inactive). For the same compound, the GI50 [5] was 42.8 µM (inactive), the GI50 [16] was > 100 µM (inactive) and the GI50 [6] was > 100 µM (inactive). For the same compound, the GI50 [17] was > 100 µM (inactive), the GI50 [8] was 62.5 µM (inactive) and the GI50 [10] was 30.8 µM (inactive). The GI50 [11] was 95.7 µM (inactive), the GI50 [12] was 48.2 µM (inactive) and the GI50 [13] was > 100 µM (inactive). For the same compound, the GI50 [14] was > 100 µM (inactive), the GI50 [15] was 60.7 µM (inactive) and the GI50 [18] was > 100 µM (inactive).
In the case of `O=C(CCO)OCCCCCC/C=C\CCCCCC/C=C\CCCCCCCCOC(=O)CCO`, the GI50 [1] was 18.5 µM (inactive), the GI50 [2] was 23.3 µM (inactive) and the GI50 [3] was 17.1 µM (inactive). The GI50 [4] was 21.7 µM (inactive), the GI50 [5] was 18.2 µM (inactive) and the GI50 [16] was 21.2 µM (inactive). The GI50 [6] was 26.6 µM (inactive), the GI50 [7] was 19.9 µM (inactive) and the GI50 [17] was 17.1 µM (inactive). For the same compound, the GI50 [9] was 12.2 µM (inactive), the GI50 [10] was 18.5 µM (inactive) and the GI50 [11] was 14.6 µM (inactive). For the same compound, the GI50 [12] was 3.05 µM (inactive), the GI50 [13] was 23 µM (inactive) and the GI50 [14] was 17.2 µM (inactive). For the same compound, the GI50 [19] was 17.8 µM (inactive) and the GI50 [18] was 16.4 µM (inactive).
In the case of `CCOC(=O)C12OC(OCC)(CC1(OCC)OCC)C1(CC1)C2=O` (centres undefined), the GI50 [1] was > 100 µM (inactive), the GI50 [2] was > 100 µM (inactive) and the GI50 [3] was > 100 µM (inactive). For the same compound, the GI50 [4] was > 100 µM (inactive), the GI50 [5] was > 100 µM (inactive) and the GI50 [16] was > 100 µM (inactive). For the same compound, the GI50 [6] was > 100 µM (inactive), the GI50 [7] was > 100 µM (inactive) and the GI50 [10] was > 100 µM (inactive). For the same compound, the GI50 [11] was > 100 µM (inactive), the GI50 [12] was > 100 µM (inactive) and the GI50 [13] was > 100 µM (inactive). The GI50 [14] was > 100 µM (inactive), the GI50 [19] was > 100 µM (inactive) and the GI50 [15] was > 100 µM (inactive). For the same compound, the GI50 [18] was > 100 µM (inactive).
`COc1cc(C2=C(C#N)C(N)OC3=C2COc2ccccc23)cc(OC)c1OC` (centres undefined) was tested, and the GI50 [1] was 14.9 µM (inactive), the GI50 [2] was 24.5 µM (inactive) and the GI50 [3] was 6.62 µM (inactive). For the same compound, the GI50 [5] was 40.8 µM (inactive), the GI50 [16] was 34.3 µM (inactive) and the GI50 [6] was 50.1 µM (inactive). The GI50 [7] was 16.4 µM (inactive), the GI50 [8] was 19.5 µM (inactive) and the GI50 [9] was > 100 µM (inactive). For the same compound, the GI50 [11] was 3.16 µM (inactive), the GI50 [12] was 0.938 µM (active) and the GI50 [13] was 14.2 µM (inactive). For the same compound, the GI50 [14] was 31.3 µM (inactive), the GI50 [19] was > 100 µM (inactive) and the GI50 [15] was 30.4 µM (inactive). The GI50 [18] was 10.6 µM (inactive).
With `COc1cc2c(oc(=O)c3cc4ccoc4c(OC)c32)c2cccc(O)c12` the GI50 [1] was > 100 µM (inactive), the GI50 [2] was > 100 µM (inactive) and the GI50 [3] was > 100 µM (inactive). For the same compound, the GI50 [4] was > 100 µM (inactive), the GI50 [5] was > 100 µM (inactive) and the GI50 [6] was > 100 µM (inactive). For the same compound, the GI50 [7] was > 100 µM (inactive), the GI50 [8] was > 100 µM (inactive) and the GI50 [9] was > 100 µM (inactive). The GI50 [10] was > 100 µM (inactive), the GI50 [11] was > 100 µM (inactive) and the GI50 [12] was > 100 µM (inactive). The GI50 [13] was > 100 µM (inactive), the GI50 [14] was > 100 µM (inactive) and the GI50 [15] was > 100 µM (inactive).
In the case of `COC(=O)C(C(=O)C(N)=O)c1csc(-n2nc(-c3ccccc3)cc2-c2ccccc2)n1` (centres undefined), the GI50 [1] was > 31.6 µM (inactive), the GI50 [2] was > 31.6 µM (inactive) and the GI50 [3] was > 10 µM (inactive). For the same compound, the GI50 [4] was 10.6 µM (inactive), the GI50 [5] was > 67 µM (inactive) and the GI50 [6] was 4.4 µM (inactive). The GI50 [7] was > 31.6 µM (inactive), the GI50 [8] was > 10 µM (inactive) and the GI50 [9] was 26.1 µM (inactive). For the same compound, the GI50 [10] was 30.4 µM (inactive), the GI50 [11] was 25.5 µM (inactive) and the GI50 [12] was 25.1 µM (inactive). The GI50 [13] was 43.2 µM (inactive), the GI50 [14] was 19.8 µM (inactive) and the GI50 [15] was 20.9 µM (inactive).
`COc1cccc2c1OCC1Cc3ccccc3OC21` (centres undefined) was tested, and the GI50 [1] was 60.4 µM (inactive), the GI50 [2] was 99.1 µM (inactive) and the GI50 [3] was 36.2 µM (inactive). For the same compound, the GI50 [4] was 61.4 µM (inactive), the GI50 [16] was 24.7 µM (inactive) and the GI50 [6] was 41.8 µM (inactive). The GI50 [7] was 92.3 µM (inactive), the GI50 [17] was 35.2 µM (inactive) and the GI50 [8] was 59.3 µM (inactive). The GI50 [10] was 44.9 µM (inactive), the GI50 [11] was 28.8 µM (inactive) and the GI50 [12] was 54.1 µM (inactive). The GI50 [13] was 26.5 µM (inactive), the GI50 [14] was 24.4 µM (inactive) and the GI50 [19] was 25.4 µM (inactive). For the same compound, the GI50 [15] was > 100 µM (inactive) and the GI50 [18] was 49.8 µM (inactive).
With `c1ccc([C@H]2CN3CCSC3=N2)cc1` [LEVAMISOLE HYDROCHLORIDE] the GI50 [1] was > 100 µM (inactive), the GI50 [2] was > 100 µM (inactive) and the GI50 [3] was > 100 µM (inactive). The GI50 [4] was > 100 µM (inactive), the GI50 [5] was > 100 µM (inactive) and the GI50 [16] was > 100 µM (inactive). The GI50 [6] was > 100 µM (inactive), the GI50 [7] was > 100 µM (inactive) and the GI50 [17] was > 100 µM (inactive). For the same compound, the GI50 [8] was > 100 µM (inactive), the GI50 [9] was > 100 µM (inactive) and the GI50 [10] was > 100 µM (inactive). The GI50 [11] was > 100 µM (inactive), the GI50 [12] was > 100 µM (inactive) and the GI50 [13] was > 100 µM (inactive). The GI50 [14] was > 100 µM (inactive), the GI50 [19] was > 100 µM (inactive) and the GI50 [15] was > 100 µM (inactive). The GI50 [18] was > 100 µM (inactive).

Source: ChEMBL document CHEMBL1201862, “PubChem BioAssay data set” (2004)
